In US20180194762A1 (Pharmacyclics LLC, priority 2017, published 2018) one finds IC50 data, which are given here for 15 compounds.

Type in all cases: biochemical
Assay [1] addresses T1, Btk (Homo sapiens, UniProt Q06187).
T1 construct: purified from insect cells as a full-length construct containing a N-terminal 6X-His tag; His6 (N); made in house; host or cells: insect cells (Method C)
In words: Btk in vitro inhibitory activity (one of Method A TR-FRET, Method B electrophoretic mobility shift, Method C radiometric filter binding). The conditions noted are these: wild-type Btk; read-out: Btk-WT IC50. The procedure, abridged:
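Method A: TR-FRET with 0.5 nM Btk at [ATP]=Km, EDTA-quenched, 665/615 nm ratio; Ki(app) converted to IC50. Method B: 1 nM full-length His6 human BTK, 1 μM FAM peptide, pH 7.5, mobility-shift product/sum ratio, 12-point 4-parameter fit. Method C: radiometric filter binding, 8 nM His-tagged BTK, 0.2 mg/mL poly-Glu-Tyr.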

The target of assay [2] is T2, TEC (Homo sapiens, UniProt P42680).
T2 sequence (P42680 1-631): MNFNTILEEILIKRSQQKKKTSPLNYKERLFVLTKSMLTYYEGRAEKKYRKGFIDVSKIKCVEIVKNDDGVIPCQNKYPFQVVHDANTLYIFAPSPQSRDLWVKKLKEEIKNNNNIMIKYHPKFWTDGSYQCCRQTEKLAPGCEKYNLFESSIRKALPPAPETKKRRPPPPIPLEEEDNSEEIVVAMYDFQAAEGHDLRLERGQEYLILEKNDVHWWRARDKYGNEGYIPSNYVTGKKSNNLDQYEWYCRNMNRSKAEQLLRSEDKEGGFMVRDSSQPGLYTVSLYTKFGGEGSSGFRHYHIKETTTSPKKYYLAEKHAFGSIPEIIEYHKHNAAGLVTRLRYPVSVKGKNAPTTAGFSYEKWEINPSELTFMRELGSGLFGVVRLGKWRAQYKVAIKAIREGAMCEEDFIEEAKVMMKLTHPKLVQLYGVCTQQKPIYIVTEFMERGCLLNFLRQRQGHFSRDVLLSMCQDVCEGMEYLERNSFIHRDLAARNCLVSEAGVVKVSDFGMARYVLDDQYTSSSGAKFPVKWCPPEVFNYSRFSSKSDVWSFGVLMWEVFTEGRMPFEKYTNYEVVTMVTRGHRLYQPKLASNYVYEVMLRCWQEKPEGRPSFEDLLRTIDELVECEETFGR
In words: Inhibition of a panel of kinases (in vitro HotSpot kinase assay, 33P-ATP, 1 μM ATP). The conditions noted are these: HotSpot kinase assay, 1 μM ATP. In a few lines:
(§1)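 Degree of kinase inhibition is determined in vitro using isolated enzymes, a matched substrate and radiolabelled ATP (1 μM).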

The target of assay [3] is T3, panel of kinases (Homo sapiens, UniProt P51813).
T3 sequence (P51813 1-675): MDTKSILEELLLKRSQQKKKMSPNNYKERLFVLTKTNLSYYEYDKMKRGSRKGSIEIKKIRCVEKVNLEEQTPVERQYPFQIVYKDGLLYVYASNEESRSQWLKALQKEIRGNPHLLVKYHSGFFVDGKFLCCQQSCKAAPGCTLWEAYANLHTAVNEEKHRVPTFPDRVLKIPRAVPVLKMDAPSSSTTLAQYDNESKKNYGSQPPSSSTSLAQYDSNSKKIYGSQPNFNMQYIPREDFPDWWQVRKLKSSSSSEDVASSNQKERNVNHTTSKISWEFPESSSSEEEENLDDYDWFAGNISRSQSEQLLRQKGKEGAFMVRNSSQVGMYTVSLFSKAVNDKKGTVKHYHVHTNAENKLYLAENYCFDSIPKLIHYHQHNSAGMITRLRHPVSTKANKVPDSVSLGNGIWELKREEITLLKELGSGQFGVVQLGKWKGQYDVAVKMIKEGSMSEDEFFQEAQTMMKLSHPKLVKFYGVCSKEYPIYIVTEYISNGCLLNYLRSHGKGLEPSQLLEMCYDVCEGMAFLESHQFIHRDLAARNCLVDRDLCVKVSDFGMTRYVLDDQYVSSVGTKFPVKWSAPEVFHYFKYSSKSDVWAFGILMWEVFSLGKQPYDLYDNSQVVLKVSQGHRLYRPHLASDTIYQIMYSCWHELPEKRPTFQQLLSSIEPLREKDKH
In words: Inhibition of a panel of kinases (in vitro HotSpot kinase assay, 33P-ATP, 1 μM ATP), other kinases. The conditions noted are these: BMX wild-type, read-out: BMX-WT IC50. In a few lines: as §1

T1 sequence (Q06187 whole entry): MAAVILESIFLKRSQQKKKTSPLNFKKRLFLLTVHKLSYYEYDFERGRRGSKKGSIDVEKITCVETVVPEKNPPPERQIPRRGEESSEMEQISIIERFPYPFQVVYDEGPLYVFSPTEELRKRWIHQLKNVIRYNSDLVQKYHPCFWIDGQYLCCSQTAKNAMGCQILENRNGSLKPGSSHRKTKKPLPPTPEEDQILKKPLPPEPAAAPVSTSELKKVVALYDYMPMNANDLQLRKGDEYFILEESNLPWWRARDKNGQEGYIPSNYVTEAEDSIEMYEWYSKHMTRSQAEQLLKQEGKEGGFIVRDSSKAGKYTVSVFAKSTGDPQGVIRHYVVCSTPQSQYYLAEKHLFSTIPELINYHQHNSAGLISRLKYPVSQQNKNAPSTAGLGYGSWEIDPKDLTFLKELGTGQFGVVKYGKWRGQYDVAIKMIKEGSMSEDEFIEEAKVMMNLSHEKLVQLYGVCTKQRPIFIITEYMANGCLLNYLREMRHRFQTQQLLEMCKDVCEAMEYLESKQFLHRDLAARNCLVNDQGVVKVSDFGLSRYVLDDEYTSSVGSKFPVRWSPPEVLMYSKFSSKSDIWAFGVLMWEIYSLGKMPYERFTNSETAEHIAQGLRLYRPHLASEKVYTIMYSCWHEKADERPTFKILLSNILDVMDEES

As to `C[C@@H](NC(=O)c1nc(C(C)(C)C)no1)c1ccc(-c2ccnc3[nH]nc(N4CCC(NS(C)(=O)=O)CC4)c23)cc1` [Example 396, 3-tert-butyl-N-{(1R)-1-[4-(3-{4-[(methanesulfonyl)amino]piperidin-1-yl}-1H-pyrazolo[3,4-b]pyridin-4-yl)phenyl]ethyl}-1,2,4-oxadiazole-5-carboxamide], the IC50 in assay [1] was 0.488 nM; in assay [2], 235 nM; in assay [3] it was 1190 nM.

`C[C@@H](NC(=O)c1cc(C(C)(C)O)on1)c1ccc(-c2ccnc3[nH]nc(NC4CCCC4)c23)cc1` [Example 397, N-[(1R)-1-{4-[3-(cyclopentylamino)-1H-pyrazolo[3,4-b]pyridin-4-yl]phenyl}ethyl]-5-(2-hydroxypropan-2-yl)-1,2-oxazole-3-carboxamide]: the IC50 turned out to be 382 nM in assay [1], 6060 nM in assay [2] and 3360 nM in assay [3].

Regarding `CC(C)(C#N)c1cc(C(=O)NCc2ccc(-c3ccnc4[nH]nc(N5CC[C@@H](N)C5)c34)cc2F)no1` [Example 401, N-[(4-{3-[(3R)-3-aminopyrrolidin-1-yl]-1H-pyrazolo[3,4-b]pyridin-4-yl}-2-fluorophenyl)methyl]-5-(2-cyanopropan-2-yl)-1,2-oxazole-3-carboxamide], the IC50 in assay [1] is 33.8 nM; in assay [2] it was 1280 nM; in assay [3] it was 885 nM.

Take `C=CC(=O)N[C@@H]1CCN(c2n[nH]c3nccc(-c4ccc(CNC(=O)c5cc(C(C)(C)C#N)on5)c(F)c4)c23)C1` [Example 402, 5-(2-cyanopropan-2-yl)-N-{[2-fluoro-4-(3-{(3R)-3-[(prop-2-noyl)amino]pyrrolidin-1-yl}-1H-pyrazolo[3,4-b]pyridin-4-yl)phenyl]methyl}-1,2-oxazole-3-carboxamide]: the IC50 came out at 0.222 nM in assay [1], 6.48 nM in assay [2] and 16.9 nM in assay [3].

For `CC(=O)N[C@@H]1CCN(c2n[nH]c3nccc(-c4ccc(CNC(=O)c5cc(C(C)(C)C#N)on5)c(F)c4)c23)C1` [Example 403, N-[(4-{3-[(3R)-3-acetamidopyrrolidin-1-yl]-1H-pyrazolo[3,4-b]pyridin-4-yl}-2-fluorophenyl)methyl]-5-(2-cyanopropan-2-yl)-1,2-oxazole-3-carboxamide], the IC50 worked out at 17.3 nM in assay [1], 1400 nM in assay [2] and 1810 nM in assay [3].

On to `C[C@@H](NC(=O)c1cc(C(C)(C)O)on1)c1ccc(-c2ccnc3[nH]nc(N4CCOCC4)c23)cc1` [Example 404, 5-(2-hydroxypropan-2-yl)-N-[(1R)-1-{4-[3-(morpholin-4-yl)-1H-pyrazolo[3,4-b]pyridin-4-yl]phenyl}ethyl]-1,2-oxazole-3-carboxamide], for which the IC50 came to 18 nM in assay [1], 685 nM in assay [2] and 498 nM in assay [3].

For the compound `CC(C)c1noc(C(=O)N[C@H](C)c2ccc(-c3ccnc4[nH]nc(N5CCS(=O)(=O)CC5)c34)cc2)n1` [Example 405, N-[(1R)-1-{4-[3-(1,1-dioxo-1λ^6-thiomorpholin-4-yl)-1H-pyrazolo[3,4-b]pyridin-4-yl]phenyl}ethyl]-3-(propan-2-yl)-1,2,4-oxadiazole-5-carboxamide], the IC50 in assay [1] turned out to be 31 nM; in assay [2], 2380 nM; in assay [3], 3300 nM.

Take `C[C@@H](NC(=O)c1cc(C(C)(C)O)on1)c1ccc(-c2ccnc3[nH]nc(N4CCS(=O)(=O)CC4)c23)cc1` [Example 406, N-[(1R)-1-{4-[3-(1,1-dioxo-1λ^6-thiomorpholin-4-yl)-1H-pyrazolo[3,4-b]pyridin-4-yl]phenyl}ethyl]-5-(2-hydroxypropan-2-yl)-1,2-oxazole-3-carboxamide]: the IC50 in assay [1] worked out at 92.9 nM; in assay [2], 4740 nM; in assay [3], 5320 nM.

Turning to `CC(=O)N1C[C@H](Nc2n[nH]c3nccc(-c4ccc(CNC(=O)c5nc(C(C)(C)C)no5)c(F)c4)c23)CC[C@@H]1C` [Example 408, N-{[4-(3-{[(3R,6S)-1-acetyl-6-methylpiperidin-3-yl]amino}-1H-pyrazolo[3,4-b]pyridin-4-yl)-2-fluorophenyl]methyl}-3-tert-butyl-1,2,4-oxadiazole-5-carboxamide], the results for the IC50 in assay [1], in assay [2] and in assay [3] were 0.413 nM, 110 nM and 874 nM, respectively.

For the compound `C[C@H]1CC[C@@H](Nc2n[nH]c3nccc(-c4ccc(CNC(=O)c5nc(C(C)(C)C)no5)c(F)c4)c23)CN1C(=O)N1CCOCC1` [Example 409, 3-tert-butyl-N-{[2-fluoro-4-(3-{[(3R,6S)-6-methyl-1-(morpholine-4-carbonyl)piperidin-3-yl]amino}-1H-pyrazolo[3,4-b]pyridin-4-yl)phenyl]methyl}-1,2,4-oxadiazole-5-carboxamide], the figures for the IC50 in assay [1], in assay [2] and in assay [3] were 0.546 nM, 177 nM and 863 nM, respectively.

Turning to `COC(=O)N1C[C@H](Nc2n[nH]c3nccc(-c4ccc(CNC(=O)c5nc(C(C)(C)C)no5)c(F)c4)c23)CC[C@@H]1C` [Example 410, methyl (2S,5R)-5-{[4-(4-{[(3-tert-butyl-1,2,4-oxadiazole-5-carbonyl)amino]methyl}-3-fluorophenyl)-1H-pyrazolo[3,4-b]pyridin-3-yl]amino}-2-methylpiperidine-1-carboxylate], the IC50 in assay [1] turned out to be 1.08 nM; in assay [2], 542 nM; in assay [3] it was 2020 nM.

For `C[C@H]1CC[C@@H](Nc2n[nH]c3nccc(-c4ccc(CNC(=O)c5nc(C(C)(C)C)no5)c(F)c4)c23)CN1C1COC1` [Example 411, 3-tert-butyl-N-{[2-fluoro-4-(3-{[(3R,6S)-6-methyl-1-(oxetan-3-yl)piperidin-3-yl]amino}-1H-pyrazolo[3,4-b]pyridin-4-yl)phenyl]methyl}-1,2,4-oxadiazole-5-carboxamide], the IC50 was found to be 9.53 nM in assay [1], 2270 nM in assay [2] and 9390 nM in assay [3].

Turning to `C[C@H]1CC[C@@H](Nc2n[nH]c3nccc(-c4ccc(CNC(=O)c5ccc(C(C)(C)O)cc5F)c(F)c4)c23)CN1C(=O)N(C)C` [Example 414, (2S,5R)-5-{[4-(3-fluoro-4-{[2-fluoro-4-(2-hydroxypropan-2-yl)benzamido]methyl}phenyl)-1H-pyrazolo[3,4-b]pyridin-3-yl]amino}-N,N,2-trimethylpiperidine-1-carboxamide], the IC50 in assay [1] was determined as 59.2 nM; in assay [2] it was 1040 nM; in assay [3], 3250 nM.

On to `C[C@H]1CC[C@@H](Nc2n[nH]c3nccc(-c4ccc(CNC(=O)c5nc6c(s5)CCCC6)c(F)c4)c23)CN1C(=O)N(C)C` [Example 415, N-{[4-(3-{[(3R,6S)-1-(dimethylcarbamoyl)-6-methylpiperidin-3-yl]amino}-1H-pyrazolo[3,4-b]pyridin-4-yl)-2-fluorophenyl]methyl}-4,5,6,7-tetrahydro-1,3-benzothiazole-2-carboxamide], for which the IC50 in assay [1] was determined as 28.1 nM; in assay [2], 2150 nM; in assay [3] it was 3000 nM.

With `C[C@H]1CC[C@@H](Nc2n[nH]c3nccc(-c4ccc(CNC(=O)c5cc(C(C)(C)O)on5)c(F)c4)c23)CN1C(=O)N(C)C` [Example 418, (2S,5R)-5-({4-[3-fluoro-4-({[5-(2-hydroxypropan-2-yl)-1,2-oxazole-3-carbonyl]amino}methyl)phenyl]-1H-pyrazolo[3,4-b]pyridin-3-yl}amino)-N,N,2-trimethylpiperidine-1-carboxamide], the IC50 is 50.6 nM in assay [1], 3080 nM in assay [2] and 3820 nM in assay [3].
